Results: ChEMBL document CHEMBL1208752, “Selective delivery of 2-hydroxy APA to Trypanosoma brucei using the melamine motif” (Bioorg Med Chem Lett, 2010)

Tests used:
[1] = system: Trypanosoma brucei brucei; assay: Antitrypanosomal activity against tbAT1 deficient Trypanosoma brucei brucei at 100 uM after 2 days by alamar blue assay; format: functional, organism-based
[2] = system: Trypanosoma brucei brucei; assay: Antitrypanosomal activity against wild type Trypanosoma brucei brucei expressing P2 transporter at 100 uM after 2 days by alamar blue assay; format: functional, organism-based

Row | EC50 [1] | EC50 [2] | SMILES
1 | Not Active |  | CC(Nc1nc(N)nc(N)n1)C(=O)OC(CN)CON.Cl.Cl (centres undefined)
2 |  | Not Active | Cl.Cl.NCC(O)CON (centres undefined)
3 | Not Active |  | Cl.Cl.NCC(CON)OC(=O)CCNc1nc(N)nc(N)n1 (centres undefined)
4 | Not Active |  | Cl.Cl.NCC(CON)OC(=O)CNc1nc(N)nc(N)n1 (centres undefined)
